# Columns and labels:
# tau protein = tau protein aggregation over time (FIG. 1); format: biochemical; details: tau protein 4 μM; compound at 10 μM
# alpha-synuclein [1] = target: T1, alpha-synuclein (Homo sapiens, UniProt P37840); test: alpha-synuclein aggregation inhibition (procedure similar to the ThT assay); format: biochemical; details: alpha-synuclein 6 μM
# Aβ40 = target: T2, Aβ40 (Homo sapiens, UniProt P05067); test: ThT functional Aβ 1-40 aggregation assay; format: biochemical; details: for IC50: 20 μM Aβ, 20 mM Tris pH 7.4, 150 mM NaCl, 1% DMSO, 37° C.; for Ratio: potency with respect to the compound of Example 7, 1=potency of that compound
# T2 construct: Compounds Showing Activity Observed in a ThT Functional Aβ 1-40 Aggregation Assay
# T2 sequence (P05067 672-711 limits assumed): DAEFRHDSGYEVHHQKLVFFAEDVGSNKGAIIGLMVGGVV
# Experimental: Aβ40 (1.0 mg) was pre-treated in a 1.5 mL microfuge tube with HFIP (1 mL) and sonicated for 20 min to disassemble any pre-formed Aβ aggregates. The HFIP was removed with a stream of argon and the Aβ dissolved in Tris base (5.8 mL, 20 mM, pH ˜10). The pH was adjusted to 7.4 with concentrated HCl (˜10 μL) and the solution filtered using a syringe filter (0.2 μm) before being used.
# (§1) The kinetic ThT assay for Aβ aggregation is similar to that of Chalifour et al (Chalifour et al, 2003, J. Biol. Chem. 278:34874-81). Briefly, pre-treated Aβ40 (40 μM in 20 mM Tris, pH 7.4), was diluted with an equal volume of 8 μM ThT in Tris (20 mM, pH 7.4, 300 mM NaCl). Aliquots of Aβ/ThT (200 μL) were added to wells of a black polystyrene 96-well plate, followed by 2 μL of a compound in DMSO (variable concentration), or DMSO alone (controls). Incubations were performed in triplicate and were taken to contain 20 μM Aβ, various concentration of compound in 20 mM Tris, pH 7.4, 150 mM NaCl, 1% DMSO. Plates were covered with clear polystyrene lids and incubated at 37° C. in a Tecan Genios microplate reader. Fluorescence readings (λex=450 nm, λem=480 nm) were taken every 15 min., after first shaking at high intensity for 15 s and allowing to settle for 10 s before each reading. Active compounds attenuated the increase in fluorescence over time that occurred in controls. By repeating this procedure over several concentrations, a mean inhibitory concentration (IC50) was measured, as given in the table below. The column “A-syn” represents a similar procedure measuring inhibition of alpha-synuclein aggregation. The column “ratio” is a reproducible assessment of potency with respect to the compound of Example 7, in which 1=potency of that compound: […]
# alpha-synuclein [2] = target: T1, alpha-synuclein; test: alpha-synuclein aggregation inhibition (procedure similar to the ThT assay); format: biochemical; details: inhibition of alpha-synuclein aggregation; read-out: A-syn (IC50/μM)
# Experimental: as §1
# amyloid = test: circular dichroism scans of amyloid with compound, T=0 to 168 hr (FIGS. 3-6); details: scans at T=0, 24 hr, 96 hr, 120 hr
# beta-amyloid = beta-amyloid (Homo sapiens, UniProt P05067); details: cited from earlier work
smiles,measurement,setting,value
"CN1CCN(c2ccc([N+](=O)[O-])c(NCc3ccccc3)c2)CC1 [Example 4, N-benzyl-5-(4-methylpiperazin-1-yl)-2-nitrobenzenamine]",ability to inhibit the aggregation of tau protein,tau protein,inhibit the aggregation of tau protein
same,inhibition at 10 µM,alpha-synuclein [1]; compound at 10 μM,50%
same,inhibition of aggregation of alpha-synuclein,alpha-synuclein [1]; compound at 50 μM,full inhibition
"CCCNc1cc(N2CCN(C(=O)c3ccccc3)CC2)ccc1[N+](=O)[O-] [Example 6, (4-(4-nitro-3-(propylamino)phenyl)piperazin-1-yl)(phenyl)methanone]",ability to inhibit the aggregation of tau protein,tau protein,inhibit the aggregation of tau protein
"O=C(c1ccccc1)N1CCN(c2ccc([N+](=O)[O-])c(Nc3ccccc3)c2)CC1 [Example 7, (4-(4-nitro-3-(phenylamino)phenyl)piperazin-1-yl)(phenyl)methanone]",IC50,Aβ40,0.85 µM
same,Ratio,Aβ40,1
same,IC50,alpha-synuclein [2],6.34 µM
same,ability to inhibit the aggregation of tau protein,tau protein,inhibit the aggregation of tau protein
"CN(C)c1cc([N+](=O)[O-])ccc1N1CCN(C(=O)c2ccccc2)CC1 [Example 25, N,N-dimethyl-2-(4-benzoylpiperazin-1-yl)-5-nitrobenzenamine]",circular dichroism: effect on amyloid structure,amyloid,keeps amyloid from entering an aggregated structure
"CN(C)c1ccc(N2CCN(C(=O)c3ccccc3)CC2)cc1Nc1ccccc1 [Example 34, (4-(4-(dimethylamino)-3-(phenylamino)phenyl)piperazin-1-yl)(phenyl)methanone]",circular dichroism: effect on amyloid structure,amyloid,keeps amyloid from entering an aggregated structure
"O=C(O)c1cccc(-c2ccc([N+](=O)[O-])c(Nc3ccccc3)c2)c1 [Example 46, 4′-nitro-3′-(phenylamino) biphenyl-3-carboxylic acid]",circular dichroism: effect on amyloid structure,amyloid,keeps amyloid from entering an aggregated structure
"O=C(O)c1cccc(-c2ccc([N+](=O)[O-])c(NCc3ccccc3)c2)c1 [Example 54, 3′-(benzylamino)-4′-nitrophenyl-3-carboxylic acid]",circular dichroism: effect on amyloid structure,amyloid,keeps amyloid from entering an aggregated structure
CN(C)c1ccc(N2CCN(C(=O)c3ccccc3)CC2)cc1Nc1ccccc1 [drawing 157],IC50,Aβ40,3.5 µM
same,Ratio,Aβ40,11
same,IC50,alpha-synuclein [2],~7 µM
Oc1ccc(C=Cc2cc(O)cc(O)c2)cc1 [resveratrol],effective concentration for inhibition of beta-amyloid aggregation,beta-amyloid,5.6 µM
